Drawing on PubChem BioAssay (NCI), this text covers TGI and GI50 for 26 compounds.

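Following 48 hours of exposure in 96-well plates, responses at five concentrations were used to interpolate endpoints linearly. Here, GI50 denotes the concentration required for 50% inhibition of growth. TGI marks complete inhibition of growth.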

In the first assay the test system is TK-10 renal. Nature of the assay: NCI anticancer screen, dose series, 48 h.
As for `COP(=O)(/C=C/c1cc(C(=O)OCc2ccccc2)n(S(=O)(=O)c2ccccc2)c1)OC`, the TGI was above 100 µM.
Same read-out and setting: the same measure for `CCNC(=O)Cc1nc2c(N)ncnc2n1C1OC(CO)C(O)C1O` (stereo not drawn): above 100 µM; for `Cc1cc(C(=O)CCCCOc2ccc(C3=NCCO3)cc2)c(C)n1C`: above 100 µM; for `COc1cc(/C=C/C(=O)CC(=O)/C=C/c2ccc(OC(=O)CCCCC3CCSS3)c(OC)c2)ccc1OC(=O)CCCCC1CCSS1` (stereo not drawn): above 100 µM.
Still for that read-out and setting: the same measure for `[O-][n+]1ccccc1Sc1nc(Sc2cccc[n+]2[O-])nc(Sc2cccc[n+]2[O-])n1`: 3.82 µM; for `CCCCC(C(=O)NCCNC(=O)CCC(=O)N(C)O)C(=O)NCCNC(=O)CCC(=O)N(C)O`: above 100 µM; for `CC1(C)C2CCC1(C)[C@H](n1c(=O)n([C@@H]3CC4CCC3(C)C4(C)C)c(=O)n([C@@H]3CC4CCC3(C)C4(C)C)c1=O)C2`: above 100 µM.
Consider `CSc1nsc(-c2ccccc2)[s+]1`, for which the TGI is above 100 µM.

The subject of another assay is NCI/ADR-RES ovarian. The assay can be described thus: NCI anticancer screen, dose series, 48 h.
For the compound `O=c1c2sc(=S)n(-c3ccc(F)cc3)c2ncn1/N=C/c1ccc(F)cc1F`, the TGI was above 100 µM.
Same read-out and setting: the same measure for `COc1ccc2c(C)cc(=O)oc2c1OC`: above 100 µM; for `CC1CCC(C(=O)O)(C(Br)C(=O)O)CC1` (stereo not drawn): above 100 µM.
Turning to `Cc1cc(N(CCOS(C)(=O)=O)CCOS(C)(=O)=O)ccc1C=O`, the TGI is 60.5 µM.
Turning to `CCCCCCOc1ccc(C(=O)NOC)cc1`, the TGI is above 100 µM.
Still for that read-out and setting: under `NS(=O)(=O)c1cc(Cl)c(NC(=S)NC(=O)Nc2ccc(Cl)c(Cl)c2)c(Cl)c1` stands above 100 µM.
On the same count and under the same terms, the same measure for `CCOP(=O)(OCC)C(c1ccc(F)cc1)N(C(=O)NC(F)(F)F)c1ccc(OC)cc1` (stereo not drawn): above 100 µM; for `CCOC(=O)c1c(C)nc2c3ccccc3c(C#N)c(C)n12`: above 100 µM.
On the same count and under the same terms, under `O=C(O)CCC(=O)OC1N=C(c2ccccc2Cl)c2cc([N+](=O)[O-])ccc2NC1=O` (stereo not drawn) stands above 100 µM.
In the case of `CO[C@H]1/C=C(/C)CCC[C@H](C)[C@H](O)[C@@H](C)C(=O)C(C)(C)[C@@H](O)CC(=O)O[C@@H]1/C(C)=C/c1csc(C)n1`, the GI50 is 25.2 nM and the TGI turned out to be 0.128 µM.
`OCCc1ccsc1-c1sc(-c2cc(CCO)c(-c3sccc3CCO)s2)cc1CCO` had a TGI of 38.5 µM.
On the same count and under the same terms, under `CCOC(=O)c1ccc(NCC#CCN2CCOCC2)cc1` stands above 100 µM.
On the same count and under the same terms, the same measure for `COc1ccc(-c2nc(SCC(=O)N/N=C/c3ccc(N(C)C)cc3)[nH]c2-c2ccc(OC)cc2)cc1`: above 100 µM.
In turn, `CS(=O)(=O)OCC(CCl)(CCl)CCl` had a TGI above 100 µM.
The same measure, in the same setting: the same measure for `CC(=N/N=C/c1ccccn1)/C(C)=N/N=C(C)/C(C)=N/N=C(C)/C(C)=N/N=C(C)/C(C)=N\N=C\c1ccccn1`: above 100 µM; for `COc1ccc(C2=N/C(=C\c3ccccc3)C(=O)O2)cc1`: 43.4 µM.
The same measure, in the same setting: the same measure for `CCN(CC)CCN(C(=Nc1ccccc1)N1CCOCC1)c1ccccc1`: above 100 µM; for `COP(=O)(/C=C/c1cc(C(=O)OCc2ccccc2)n(S(=O)(=O)c2ccccc2)c1)OC`: above 100 µM.
On the same count and under the same terms, under `CCNC(=O)Cc1nc2c(N)ncnc2n1C1OC(CO)C(O)C1O` (stereo not drawn) stands above 100 µM.
On to `Cc1cc(C(=O)CCCCOc2ccc(C3=NCCO3)cc2)c(C)n1C`, for which the TGI is above 100 µM.
In turn, `COc1cc(/C=C/C(=O)CC(=O)/C=C/c2ccc(OC(=O)CCCCC3CCSS3)c(OC)c2)ccc1OC(=O)CCCCC1CCSS1` (stereo not drawn) returned a TGI above 100 µM.
The same measure, in the same setting: the same measure for `[O-][n+]1ccccc1Sc1nc(Sc2cccc[n+]2[O-])nc(Sc2cccc[n+]2[O-])n1`: 29.1 µM; for `CCCCC(C(=O)NCCNC(=O)CCC(=O)N(C)O)C(=O)NCCNC(=O)CCC(=O)N(C)O`: above 100 µM; for `CC1(C)C2CCC1(C)[C@H](n1c(=O)n([C@@H]3CC4CCC3(C)C4(C)C)c(=O)n([C@@H]3CC4CCC3(C)C4(C)C)c1=O)C2`: above 100 µM.

Another assay has as its system HCT-15 colon. The assay can be described thus: NCI anticancer screen, dose series, 48 h.
In turn, `CCOC(=O)Cn1c(=O)c2nc(SC)sc2n(-c2ccccc2)c1=O` showed a TGI above 100 µM.
Same read-out and setting: the same measure for `O=c1c2sc(=S)n(-c3ccc(F)cc3)c2ncn1/N=C/c1ccc(F)cc1F`: above 100 µM; for `COc1ccc2c(C)cc(=O)oc2c1OC`: above 100 µM; for `CC1CCC(C(=O)O)(C(Br)C(=O)O)CC1` (stereo not drawn): above 100 µM.
On the same count and under the same terms, the same measure for `Cc1cc(N(CCOS(C)(=O)=O)CCOS(C)(=O)=O)ccc1C=O`: 71.8 µM; for `CCCCCCOc1ccc(C(=O)NOC)cc1`: above 100 µM; for `NS(=O)(=O)c1cc(Cl)c(NC(=S)NC(=O)Nc2ccc(Cl)c(Cl)c2)c(Cl)c1`: above 100 µM.
In turn, `CCOP(=O)(OCC)C(c1ccc(F)cc1)N(C(=O)NC(F)(F)F)c1ccc(OC)cc1` (stereo not drawn) returned a TGI above 100 µM.
The same measure, in the same setting: the same measure for `CCOC(=O)c1c(C)nc2c3ccccc3c(C#N)c(C)n12`: above 100 µM.
Same read-out and setting: the same measure for `O=C(O)CCC(=O)OC1N=C(c2ccccc2Cl)c2cc([N+](=O)[O-])ccc2NC1=O` (stereo not drawn): above 100 µM.
Regarding `CO[C@H]1/C=C(/C)CCC[C@H](C)[C@H](O)[C@@H](C)C(=O)C(C)(C)[C@@H](O)CC(=O)O[C@@H]1/C(C)=C/c1csc(C)n1`, the GI50 was below 12.8 nM and the TGI was above 100 µM.
In turn, `OCCc1ccsc1-c1sc(-c2cc(CCO)c(-c3sccc3CCO)s2)cc1CCO` showed a TGI of 40.5 µM.
Same read-out and setting: under `CCOC(=O)c1ccc(NCC#CCN2CCOCC2)cc1` stands above 100 µM; under `COc1ccc(-c2nc(SCC(=O)N/N=C/c3ccc(N(C)C)cc3)[nH]c2-c2ccc(OC)cc2)cc1`, above 100 µM; under `CS(=O)(=O)OCC(CCl)(CCl)CCl`, above 100 µM.
Compound `CC(=N/N=C/c1ccccn1)/C(C)=N/N=C(C)/C(C)=N/N=C(C)/C(C)=N/N=C(C)/C(C)=N\N=C\c1ccccn1` gave a TGI above 100 µM.
As to `COc1ccc(C2=N/C(=C\c3ccccc3)C(=O)O2)cc1`, the TGI was above 100 µM.
Same read-out and setting: the same measure for `CCN(CC)CCN(C(=Nc1ccccc1)N1CCOCC1)c1ccccc1`: above 100 µM; for `COP(=O)(/C=C/c1cc(C(=O)OCc2ccccc2)n(S(=O)(=O)c2ccccc2)c1)OC`: above 100 µM; for `CCNC(=O)Cc1nc2c(N)ncnc2n1C1OC(CO)C(O)C1O` (stereo not drawn): above 100 µM.
`Cc1cc(C(=O)CCCCOc2ccc(C3=NCCO3)cc2)c(C)n1C` returned a TGI above 100 µM.
For the compound `COc1cc(/C=C/C(=O)CC(=O)/C=C/c2ccc(OC(=O)CCCCC3CCSS3)c(OC)c2)ccc1OC(=O)CCCCC1CCSS1` (stereo not drawn), the TGI was above 100 µM.
On the same count and under the same terms, the same measure for `[O-][n+]1ccccc1Sc1nc(Sc2cccc[n+]2[O-])nc(Sc2cccc[n+]2[O-])n1`: 2.93 µM; for `CCCCC(C(=O)NCCNC(=O)CCC(=O)N(C)O)C(=O)NCCNC(=O)CCC(=O)N(C)O`: above 100 µM; for `CC1(C)C2CCC1(C)[C@H](n1c(=O)n([C@@H]3CC4CCC3(C)C4(C)C)c(=O)n([C@@H]3CC4CCC3(C)C4(C)C)c1=O)C2`: above 100 µM.
For `CSc1nsc(-c2ccccc2)[s+]1`, the TGI is above 100 µM.

The test system of a further assay is SF-268 CNS. Nature of the assay: NCI anticancer screen, dose series, 48 h.
`O=c1c2sc(=S)n(-c3ccc(F)cc3)c2ncn1/N=C/c1ccc(F)cc1F` came in with a TGI of 43.1 µM.
The same measure, in the same setting: under `COc1ccc2c(C)cc(=O)oc2c1OC` stands above 100 µM.
`Cc1cc(N(CCOS(C)(=O)=O)CCOS(C)(=O)=O)ccc1C=O`: the TGI is above 100 µM.
